Measured values as given in ChEMBL document CHEMBL1914447, “Novel orally active antimalarial thiazoles” (J Med Chem, 2011).
In brackets after ≈: the same amount, converted by molar mass.

Key:
[1] = AUC (0 to infinity) in Sprague-Dawley rat plasma at 21.8 mg/kg, po by LCMS analysis; type: ADME, organism-based; parameters: time infinity, dose 21.8 mg/kg, route oral
[2] = Lipophilicity, log D of the compound by gradient HPLC at pH 3.0; type: physicochemical; details: buffer
[3] = Equilibrium solubility of the compound by nephelometry at pH 2.0; type: physicochemical; details: buffer
[4] = tested on: Liver microsomes; assay: Metabolic stability in human liver microsomes at 1 uM by LC-MS analysis; type: ADME, Microsome
[5] = tested on: Liver; assay: Metabolic stability in mouse liver microsomes at 1 uM by LC-MS analysis; type: ADME, Microsome
[6] = Apparent half life in Sprague-Dawley rat at 4.5 […], iv; type: ADME, organism-based; details: in vivo, read-out: t1/2(app) (converted)
[7] = tested on: L6; assay: Cytotoxicity against rat L6 cells assessed after 72 hrs by alamar blue staining; type: cell-based; details: L6, 72 h
[8] = tested on: Plasmodium berghei; assay: Antimalarial activity against GFP-transfected Plasmodium berghei ANKA infected in NMRI mouse assessed as reduction in parasitemia at 200 mg/kg, po administered as single dose after 72 hrs by flow cytometry; type: functional; parameters: scale not given: the % may be the effect or the level left
[9] = tested on: Plasmodium berghei; assay: Antimalarial activity against GFP-transfected Plasmodium berghei ANKA infected in NMRI mouse assessed as mean survival time at 10 mg/kg, po administered as single dose; type: functional
[10] = tested on: Plasmodium berghei; assay: Antimalarial activity against GFP-transfected Plasmodium berghei ANKA infected in NMRI mouse assessed as reduction in parasitemia at 50 mg/kg, po administered as quadruple dose regimen after 4 days by flow cytometry; type: functional; parameters: scale not given: the % may be the effect or the level left
[11] = molecular target: T1, CYP3A4/5 (Homo sapiens, UniProt P08684+P20815); assay: Inhibition of CYP3A4/5-mediated testosterone 6beta-hydroxylation in human liver microsomes by LCMS analysis; type: ADME, Microsome; details: probe testosterone (6beta-hydroxylation)
[12] = molecular target: Cytochrome P450 2C9 (Homo sapiens, UniProt P11712); assay: Inhibition of CYP2C9-mediated Tolbutamide methlyhydroxylation in human liver microsomes by LCMS analysis; type: ADME, Microsome
Cytochrome P450 2C9, sequence (P11712 whole entry): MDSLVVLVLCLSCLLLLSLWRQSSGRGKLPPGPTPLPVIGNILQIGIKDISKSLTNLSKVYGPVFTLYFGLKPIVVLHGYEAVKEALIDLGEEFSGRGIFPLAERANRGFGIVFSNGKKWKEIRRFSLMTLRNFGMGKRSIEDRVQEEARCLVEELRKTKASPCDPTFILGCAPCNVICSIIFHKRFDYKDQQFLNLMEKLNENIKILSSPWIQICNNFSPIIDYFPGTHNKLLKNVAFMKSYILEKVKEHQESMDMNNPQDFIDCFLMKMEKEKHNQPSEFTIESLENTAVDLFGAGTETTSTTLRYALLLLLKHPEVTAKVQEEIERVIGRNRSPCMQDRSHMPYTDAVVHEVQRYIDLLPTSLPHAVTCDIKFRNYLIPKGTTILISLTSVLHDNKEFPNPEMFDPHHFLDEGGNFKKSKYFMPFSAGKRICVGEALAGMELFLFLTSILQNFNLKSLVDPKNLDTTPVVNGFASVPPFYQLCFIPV

[13] = tested on: Plasmodium falciparum; assay: microbe, parasite or virus in culture; details: K1
[14] = tested on: Plasmodium berghei; assay: Antimalarial activity against GFP-transfected Plasmodium berghei ANKA infected in NMRI mouse assessed as reduction in parasitemia at 100 mg/kg, po administered as single dose after 72 hrs by flow cytometry; type: functional; parameters: scale not given: the % may be the effect or the level left
[15] = Total clearance in Sprague-Dawley rat plasma at 4.5 mg/kg, iv; type: ADME, organism-based; parameters: dose 4.5 mg/kg, route intravenous
[16] = AUC (0 to infinity) in Sprague-Dawley rat plasma at 4.5 mg/kg, iv by LCMS analysis; type: ADME, organism-based; parameters: time infinity, dose 4.5 mg/kg, route intravenous
[17] = molecular target: Cytochrome P450 2D6 (Homo sapiens, UniProt P10635); assay: Inhibition of CYP2D6-mediated dextromethorphan O-demethylation in human liver microsomes by LCMS analysis; type: ADME, Microsome
Cytochrome P450 2D6, sequence (P10635 whole entry): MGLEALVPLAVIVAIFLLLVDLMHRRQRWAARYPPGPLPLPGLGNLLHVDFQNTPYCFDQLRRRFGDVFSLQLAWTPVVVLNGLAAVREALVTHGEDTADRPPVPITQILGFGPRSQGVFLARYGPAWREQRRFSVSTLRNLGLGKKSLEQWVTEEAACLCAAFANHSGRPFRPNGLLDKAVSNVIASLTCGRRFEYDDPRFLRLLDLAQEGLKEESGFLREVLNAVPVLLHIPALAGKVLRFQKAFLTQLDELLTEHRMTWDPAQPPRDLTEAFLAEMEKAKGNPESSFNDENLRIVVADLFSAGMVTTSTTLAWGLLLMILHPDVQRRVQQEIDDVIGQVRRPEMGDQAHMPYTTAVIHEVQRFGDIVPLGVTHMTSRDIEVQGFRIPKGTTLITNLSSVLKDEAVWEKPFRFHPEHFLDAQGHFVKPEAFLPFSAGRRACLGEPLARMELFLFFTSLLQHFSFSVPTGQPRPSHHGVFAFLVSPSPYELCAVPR

[18] = Plasma protein binding in human at 200 ng/mL; type: ADME, cell-free; details: read-out: PPB (converted)
[19] = tested on: Plasmodium berghei; assay: Antimalarial activity against GFP-transfected Plasmodium berghei ANKA infected in NMRI mouse assessed as mean survival time at 30 mg/kg, po administered as single dose; type: functional
[20] = molecular target: Cytochrome P450 2C19 (Homo sapiens, UniProt P33261); assay: Inhibition of CYP2C19-mediated (S)-mephenytoin 4'-hydroxylation in human liver microsomes by LCMS analysis; type: ADME, Microsome
Cytochrome P450 2C19, sequence (P33261 whole entry): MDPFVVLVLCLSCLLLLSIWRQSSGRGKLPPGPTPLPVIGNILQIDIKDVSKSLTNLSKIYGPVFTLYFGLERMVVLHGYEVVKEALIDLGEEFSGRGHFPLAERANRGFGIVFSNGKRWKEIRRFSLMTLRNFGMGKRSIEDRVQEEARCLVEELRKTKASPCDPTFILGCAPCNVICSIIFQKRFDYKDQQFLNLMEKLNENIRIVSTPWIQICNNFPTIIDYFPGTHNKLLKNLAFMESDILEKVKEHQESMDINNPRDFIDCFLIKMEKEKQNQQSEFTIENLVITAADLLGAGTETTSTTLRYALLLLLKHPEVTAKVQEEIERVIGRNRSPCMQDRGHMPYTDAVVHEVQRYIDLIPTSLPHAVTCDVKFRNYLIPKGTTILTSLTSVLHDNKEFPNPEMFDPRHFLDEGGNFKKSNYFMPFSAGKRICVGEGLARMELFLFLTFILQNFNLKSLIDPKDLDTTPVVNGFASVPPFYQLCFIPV

[21] = Equilibrium solubility of the compound by nephelometry at pH 6.5; type: physicochemical; details: buffer
[22] = Plasma protein binding in mouse at 200 ng/mL; type: ADME, cell-free; details: read-out: PPB (converted)
[23] = Apparent half life in Sprague-Dawley rat at 21.8 […], po; type: ADME, organism-based; details: in vivo, read-out: t1/2(app) (converted)
[24] = Tmax in Sprague-Dawley rat at 21.8 mg/kg, po by LCMS analysis; type: ADME, organism-based; parameters: dose 21.8 mg/kg, route oral; details: in vivo
[25] = molecular target: T2, Cytochrome P450 1A2 (Homo sapiens, UniProt P05177); assay: Inhibition of CYP1A2-mediated phencetin o-de-ethylation in human liver microsomes by LCMS analysis; type: ADME, Microsome
T2 sequence (P05177 whole entry): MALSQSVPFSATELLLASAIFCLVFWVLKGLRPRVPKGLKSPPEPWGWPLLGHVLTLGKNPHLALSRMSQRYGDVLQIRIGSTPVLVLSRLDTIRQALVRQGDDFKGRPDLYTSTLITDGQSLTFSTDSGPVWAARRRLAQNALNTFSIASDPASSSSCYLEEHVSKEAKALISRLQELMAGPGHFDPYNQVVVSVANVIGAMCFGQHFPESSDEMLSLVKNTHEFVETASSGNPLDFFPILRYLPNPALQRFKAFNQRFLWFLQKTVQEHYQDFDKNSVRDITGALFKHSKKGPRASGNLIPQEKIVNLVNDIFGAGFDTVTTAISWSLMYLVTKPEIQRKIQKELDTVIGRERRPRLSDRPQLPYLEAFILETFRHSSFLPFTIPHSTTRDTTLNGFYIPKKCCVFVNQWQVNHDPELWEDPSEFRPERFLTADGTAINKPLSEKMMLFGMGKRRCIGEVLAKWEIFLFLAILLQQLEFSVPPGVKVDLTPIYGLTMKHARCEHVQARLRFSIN

[26] = Oral bioavailability in Sprague-Dawley rat at 21.8 mg/kg; type: ADME, organism-based; details: in vivo
[27] = Cmax in Sprague-Dawley rat plasma at 21.8 mg/kg, po by LCMS analysis; type: ADME, organism-based; parameters: dose 21.8 mg/kg, route oral
[28] = tested on: Plasmodium berghei; assay: Antimalarial activity against GFP-transfected Plasmodium berghei ANKA infected in po dosed NMRI mouse assessed as reduction in parasitemia administered as single dose after 72 hrs by flow cytometry; type: functional
[29] = Plasma protein binding in rat at 200 ng/mL; type: ADME, cell-free; details: read-out: PPB (converted)
[30] = molecular target: Voltage-gated inwardly rectifying potassium channel KCNH2 (Homo sapiens, UniProt Q12809); assay: Inhibition of human ERG expressed in Chinese hamster CHL cells by perforated patch clamp assay; type: cell-based
Voltage-gated inwardly rectifying potassium channel KCNH2, sequence (Q12809 whole entry): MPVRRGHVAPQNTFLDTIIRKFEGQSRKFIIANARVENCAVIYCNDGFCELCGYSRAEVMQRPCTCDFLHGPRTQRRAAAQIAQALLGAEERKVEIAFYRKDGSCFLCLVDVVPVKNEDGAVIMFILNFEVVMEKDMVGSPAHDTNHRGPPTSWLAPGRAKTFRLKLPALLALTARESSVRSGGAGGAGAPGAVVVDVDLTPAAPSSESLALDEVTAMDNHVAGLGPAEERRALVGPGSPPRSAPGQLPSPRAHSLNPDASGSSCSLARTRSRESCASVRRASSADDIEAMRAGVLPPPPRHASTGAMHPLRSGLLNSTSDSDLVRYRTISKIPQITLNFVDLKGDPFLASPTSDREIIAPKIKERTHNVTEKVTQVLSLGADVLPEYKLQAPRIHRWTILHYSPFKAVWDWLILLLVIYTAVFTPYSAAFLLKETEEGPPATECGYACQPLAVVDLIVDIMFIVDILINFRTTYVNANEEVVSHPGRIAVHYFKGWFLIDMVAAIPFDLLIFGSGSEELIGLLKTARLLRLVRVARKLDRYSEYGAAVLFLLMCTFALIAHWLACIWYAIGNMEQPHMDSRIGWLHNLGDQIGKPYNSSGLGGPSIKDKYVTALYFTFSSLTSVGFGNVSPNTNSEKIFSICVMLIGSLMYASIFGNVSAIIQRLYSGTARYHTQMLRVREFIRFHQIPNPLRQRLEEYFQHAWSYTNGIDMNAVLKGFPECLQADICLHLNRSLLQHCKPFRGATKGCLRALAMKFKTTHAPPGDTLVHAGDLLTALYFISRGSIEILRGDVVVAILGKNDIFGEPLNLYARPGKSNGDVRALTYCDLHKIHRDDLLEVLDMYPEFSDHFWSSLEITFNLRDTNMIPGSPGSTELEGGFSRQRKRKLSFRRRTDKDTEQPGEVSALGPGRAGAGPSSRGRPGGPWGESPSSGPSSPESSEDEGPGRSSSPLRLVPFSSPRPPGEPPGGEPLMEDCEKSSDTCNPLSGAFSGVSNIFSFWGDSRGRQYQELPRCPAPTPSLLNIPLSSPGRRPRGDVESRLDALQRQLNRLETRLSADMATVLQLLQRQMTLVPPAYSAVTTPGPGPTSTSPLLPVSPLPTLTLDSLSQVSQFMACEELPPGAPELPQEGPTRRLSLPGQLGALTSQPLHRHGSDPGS

[31] = Lipophilicity, log D of the compound by gradient HPLC at pH 7.4; type: physicochemical; details: buffer
[32] = tested on: Liver microsomes; assay: Metabolic stability in rat liver microsomes at 1 uM by LC-MS analysis; type: ADME, Microsome
[33] = Total clearance in Sprague-Dawley rat blood at 4.5 mg/kg, iv; type: ADME, organism-based; parameters: dose 4.5 mg/kg, route intravenous; details: whole blood
[34] = tested on: Plasmodium falciparum; assay: microbe, parasite or virus in culture; details: NF54
[35] = Volume of distribution at steady state in Sprague-Dawley rat at 4.5 mg/kg, iv; type: ADME, organism-based; parameters: dose 4.5 mg/kg, route intravenous; details: in vivo, read-out: Vdss
[36] = tested on: Plasmodium berghei; assay: Antimalarial activity against GFP-transfected Plasmodium berghei ANKA infected in NMRI mouse assessed as reduction in parasitemia at 30 mg/kg, po administered as single dose after 72 hrs by flow cytometry; type: functional; parameters: scale not given: the % may be the effect or the level left
[37] = molecular target: T1, CYP3A4/5; assay: Inhibition of CYP3A4/5-mediated midazolam 1'-hydroxylation in human liver microsomes by LCMS analysis; type: ADME, Microsome; details: probe midazolam (1'-hydroxylation)
[38] = tested on: Plasmodium berghei; assay: Antimalarial activity against GFP-transfected Plasmodium berghei ANKA infected in NMRI mouse assessed as mean survival time at 100 mg/kg, po administered as single dose; type: functional
[39] = Ratio of drug level in blood to plasma of Sprague-Dawley rat at 4.5 mg/kg, iv; type: ADME, organism-based; parameters: dose 4.5 mg/kg, route intravenous; details: whole blood and plasma
[40] = tested on: Plasmodium berghei; assay: Antimalarial activity against GFP-transfected Plasmodium berghei ANKA infected in NMRI mouse assessed as mean survival time at 50 mg/kg, po administered as quadruple dose regimen; type: functional
[41] = tested on: Plasmodium berghei; assay: Antimalarial activity against GFP-transfected Plasmodium berghei ANKA infected in NMRI mouse assessed as mean survival time at 200 mg/kg, po administered as single dose after 72 hrs; type: functional
[42] = tested on: Plasmodium berghei; assay: Antimalarial activity against GFP-transfected Plasmodium berghei ANKA infected in NMRI mouse assessed as reduction in parasitemia at 10 mg/kg, po administered as single dose after 72 hrs by flow cytometry; type: functional; parameters: scale not given: the % may be the effect or the level left

CC(C)(C)c1cc(C(=O)Nc2nc(CN)cs2)n(Cc2ccccc2)n1
AUC(0-inf) [1]: 11.8 µM·h
chromatographic logD [2]: 2.4
solubility [3]: 4930 µg/mL (≈ 13.3 mM)
Stability [4]: Stable
Stability [5]: Stable
half-life [6]: 3.7 h
IC50 [7]: 4.9 µM
Activity [8]: 99.4%
MSD [9]: 3 days
Activity [10]: 99.5%
IC50 [11]: > 30 µM
IC50 [12]: 10 µM
IC50 [13]: 0.08 µM
Activity [14]: 94%
clearance [15]: 42.6 mL/min/kg
AUC(0-inf) [16]: 4.82 µM·h
IC50 [17]: 0.4 µM
fraction unbound at 200 ng/mL [18]: 0.06
MSD [19]: 6 days
IC50 [20]: 15 µM
solubility [21]: 142 µg/mL (≈ 0.385 mM)
fraction unbound at 200 ng/mL [22]: 0.021
half-life [23]: 3.1 h
Tmax [24]: 3.25 h
IC50 [25]: 1.5 µM
bioavailability [26]: 50.4%
Cmax [27]: 1600 nM
ED50 [28]: 37 mg/kg
ED90 [28]: 86 mg/kg
fraction unbound at 200 ng/mL [29]: 0.029
IC50 [30]: 3.7 µM
chromatographic logD [31]: 3.5
Stability [32]: Stable
clearance [33]: 39.1 mL/min/kg
IC50 [34]: 0.07 µM
Vd [35]: 10.1 L/kg
Activity [36]: <40%
IC50 [37]: > 30 µM
MSD [38]: 6 days
blood plasma ratio [39]: 1.1
MSD [40]: 9 days
MSD [41]: 8 days
Activity [42]: <40%
